Like-named read-outs stand apart in the source and are kept apart here.
Columns and labels:
Format in all cases: in vivo
[1] = tested on: pigweed (Amaranthus retroflexus); assay: Test A preemergence; details: Amaranthus retroflexus, pre-emergence, 240 h; for pest or weed control at 125 g/ha: 125 g ai/ha, 0 to 100 scale where 0 is no effect and 100 is complete control; for pest or weed control at 500 g/ha: 500 g ai/ha
Kochia (Kochia scoparia) = assay: Test A postemergence; details: Bassia scoparia, post-emergence, 240 h, postemergence; for pest or weed control at 125 g/ha: 125 g ai/ha
Summary of the method: (§1)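 Greenhouse, ~10 d after spray; visual injury vs untreated controls, 0 = no effect, 100 = complete control. Preemergence: directed soil spray over planted seeds. Postemergence: plants 2–10 cm, 1–2 leaf stage. Loam/sand blend. Compound in non-phytotoxic solvent with surfactant.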

[2] = tested on: ryegrass, Italian (Italian ryegrass, Lolium multiflorum); assay: Test A postemergence; details: Lolium multiflorum, post-emergence, 240 h, postemergence; for pest or weed control at 125 g/ha: 125 g ai/ha
Summary of the method: as §1

[3] = tested on: Galium (catchweed bedstraw, Galium aparine); assay: Test A postemergence; details: Galium, post-emergence, 240 h, postemergence; for pest or weed control at 125 g/ha: 125 g ai/ha
Summary of the method: as §1

[4] = tested on: barnyardgrass (Echinochloa crus-galli); assay: Test A postemergence; details: Echinochloa crus-galli, post-emergence, 240 h, postemergence; for pest or weed control at 125 g/ha: 125 g ai/ha
Summary of the method: as §1

[5] = tested on: pigweed (Amaranthus retroflexus); assay: Test A postemergence; details: Amaranthus retroflexus, post-emergence, 240 h, postemergence; for pest or weed control at 125 g/ha: 125 g ai/ha
Summary of the method: as §1

[6] = tested on: blackgrass (Alopecurus myosuroides); assay: Test A postemergence; details: Alopecurus myosuroides, post-emergence, 240 h, postemergence; for pest or weed control at 125 g/ha: 125 g ai/ha
Summary of the method: as §1

[7] = tested on: ragweed (common ragweed, Ambrosia elatior); assay: Test A postemergence; details: Ambrosia artemisiifolia, post-emergence, 240 h, postemergence; for pest or weed control at 125 g/ha: 125 g ai/ha
Summary of the method: as §1

[8] = tested on: wheat (Triticum aestivum); assay: Test A postemergence; details: Triticum aestivum, post-emergence, 240 h, postemergence; for plant injury at 125 g/ha: 125 g ai/ha
Summary of the method: as §1

[9] = tested on: giant foxtail (Setaria faberii); assay: Test A postemergence; details: Setaria faberi, post-emergence, 240 h, postemergence; for pest or weed control at 125 g/ha: 125 g ai/ha
Summary of the method: as §1

corn (Zea mays) = assay: Test A postemergence; details: Zea mays, post-emergence, 240 h, postemergence; for plant injury at 125 g/ha: 125 g ai/ha
Summary of the method: as §1

rice (Oryra sativa) = assay: Test B flooded paddy test; details: Oryza sativa, Flood, 250 g ai/ha, read-out: Rice plant response rating
Summary of the method: (§2)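 Plants at 2-leaf stage flooded to 3 cm above soil, with compounds applied directly to paddy water and that depth maintained. Plants kept in greenhouse 13–15 d. Visual rating versus controls on a 0 (no effect) to 100 (complete control) scale.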

[10] = tested on: barnyardgrass (Echinochloa crus-galli); assay: Test B flooded paddy test; details: Echinochloa crus-galli, Flood, 250 g ai/ha, read-out: Barnyardgrass plant response rating
Summary of the method: as §2

[11] = tested on: sedge, umbrella (small-flower umbrella sedge, Cyperus difformis); assay: Test B flooded paddy test; details: Cyperus difformis, Flood, 250 g ai/ha, read-out: Sedge, Umbrella plant response rating
Summary of the method: as §2

[12] = tested on: ducksalad (Heteranthera limosa); assay: Test B flooded paddy test; details: Heteranthera limosa, Flood, 250 g ai/ha, read-out: Ducksalad plant response rating
Summary of the method: as §2

[13] = scale of 0 to 100 where 0 is no effect and 100 is complete control
[14] = 0 to 100 scale where 0 is no effect and 100 is complete control

## Cc1cc(C)cc([C@H]2CNC(=O)[C@@H]2C(=O)Nc2ccccc2F)c1 [Compound 888]
[1]; preemergence, read-out: Pigweed plant response rating
  pest or weed control at 125 g/ha: 0%
[1]; Preemergence, visual injury vs untreated controls after approximately 10 d, read-out: Pigweed plant response rating (0 to 100 scale where 0 is no effect and 100 is complete control)
  pest or weed control at 500 g/ha: 0%
Kochia (Kochia scoparia); visual injury rating after approximately 10 d, read-out: Kochia plant response rating (0 to 100 scale, 0 no effect, 100 complete control)
  pest or weed control at 125 g/ha: 0%
[2]; visual injury rating after approximately 10 d, read-out: Ryegrass, Italian plant response rating (0 to 100 scale, 0 no effect, 100 complete control)
  pest or weed control at 125 g/ha: 0%
[3]; visual injury rating after approximately 10 d, read-out: Galium plant response rating (0 to 100 scale, 0 no effect, 100 complete control)
  pest or weed control at 125 g/ha: 0%
[4]; visual injury rating after approximately 10 d, read-out: Barnyardgrass plant response rating (0 to 100 scale, 0 no effect, 100 complete control)
  pest or weed control at 125 g/ha: 90%
[5]; visual injury rating after approximately 10 d, read-out: Pigweed plant response rating (0 to 100 scale, 0 no effect, 100 complete control)
  pest or weed control at 125 g/ha: 0%
[6]; visual injury rating after approximately 10 d, read-out: Blackgrass plant response rating (0 to 100 scale, 0 no effect, 100 complete control)
  pest or weed control at 125 g/ha: 20%
[7]; visual injury rating after approximately 10 d, read-out: Ragweed plant response rating (0 to 100 scale, 0 no effect, 100 complete control)
  pest or weed control at 125 g/ha: 0%
[8]; visual injury rating after approximately 10 d, read-out: Wheat plant response rating (0 to 100 scale, 0 no effect, 100 complete control)
  plant injury at 125 g/ha: 0%
[9]; visual injury rating after approximately 10 d, read-out: Foxtail, Giant plant response rating (0 to 100 scale, 0 no effect, 100 complete control)
  pest or weed control at 125 g/ha: 30%
Corn (Zea mays); visual injury rating after approximately 10 d, read-out: Corn plant response rating (0 to 100 scale, 0 no effect, 100 complete control)
  plant injury at 125 g/ha: 0%
Rice (Oryra sativa); [13]
  pest or weed control at 250 g/ha: 0%
[10]; [13]
  pest or weed control at 250 g/ha: 70%
[11]; [13]
  pest or weed control at 250 g/ha: 0%
[12]; [13]
  pest or weed control at 250 g/ha: 75%

## Cc1ccc([C@H]2CN(C)C(=O)[C@]2(O)C(=O)Nc2cccc(F)c2F)cc1 (racemic) [Compound 1059]
[1]; preemergence, approx. 10 d, read-out: Pigweed plant response rating
  pest or weed control at 125 g/ha: 0%
[1]; preemergence, visual injury rating about 10 d after treatment, 0 to 100 scale (0 no effect, 100 complete control), read-out: Pigweed plant response rating
  pest or weed control at 500 g/ha: 0%
Kochia (Kochia scoparia); visual injury on 0 to 100 scale (0 no effect, 100 complete control), approx. 10 d, read-out: Kochia plant response rating
  pest or weed control at 125 g/ha: 0%
Kochia (Kochia scoparia); 500 g ai/ha, 0 to 100 scale, 0 is no effect, 100 is complete control, read-out: Kochia plant response rating
  pest or weed control at 500 g/ha: 0%
[2]; visual injury on 0 to 100 scale (0 no effect, 100 complete control), approx. 10 d, read-out: Ryegrass, Italian plant response rating
  pest or weed control at 125 g/ha: 0%
[2]; 500 g ai/ha, 0 to 100 scale, 0 is no effect, 100 is complete control, read-out: Ryegrass, Italian plant response rating
  pest or weed control at 500 g/ha: 20%
[3]; visual injury on 0 to 100 scale (0 no effect, 100 complete control), approx. 10 d, read-out: Galium plant response rating
  pest or weed control at 125 g/ha: 0%
[3]; 500 g ai/ha, 0 to 100 scale, 0 is no effect, 100 is complete control, read-out: Galium plant response rating
  pest or weed control at 500 g/ha: 0%
[4]; visual injury on 0 to 100 scale (0 no effect, 100 complete control), approx. 10 d, read-out: Barnyardgrass plant response rating
  pest or weed control at 125 g/ha: 40%
[4]; 500 g ai/ha, 0 to 100 scale, 0 is no effect, 100 is complete control, read-out: Barnyardgrass plant response rating
  pest or weed control at 500 g/ha: 90%
[5]; visual injury on 0 to 100 scale (0 no effect, 100 complete control), approx. 10 d, read-out: Pigweed plant response rating
  pest or weed control at 125 g/ha: 0%
[5]; 500 g ai/ha, 0 to 100 scale, 0 is no effect, 100 is complete control, read-out: Pigweed plant response rating
  pest or weed control at 500 g/ha: 0%
[6]; visual injury on 0 to 100 scale (0 no effect, 100 complete control), approx. 10 d, read-out: Blackgrass plant response rating
  pest or weed control at 125 g/ha: 0%
[6]; 500 g ai/ha, 0 to 100 scale, 0 is no effect, 100 is complete control, read-out: Blackgrass plant response rating
  pest or weed control at 500 g/ha: 0%
[7]; visual injury on 0 to 100 scale (0 no effect, 100 complete control), approx. 10 d, read-out: Ragweed plant response rating
  pest or weed control at 125 g/ha: 0%
[7]; 500 g ai/ha, 0 to 100 scale, 0 is no effect, 100 is complete control, read-out: Ragweed plant response rating
  pest or weed control at 500 g/ha: 0%
[8]; visual injury on 0 to 100 scale (0 no effect, 100 complete control), approx. 10 d, read-out: Wheat plant response rating
  plant injury at 125 g/ha: 0%
[8]; 500 g ai/ha, 0 to 100 scale, 0 is no effect, 100 is complete control, read-out: Wheat plant response rating
  plant injury at 500 g/ha: 0%
[9]; visual injury on 0 to 100 scale (0 no effect, 100 complete control), approx. 10 d, read-out: Foxtail, Giant plant response rating
  pest or weed control at 125 g/ha: 0%
[9]; 500 g ai/ha, 0 to 100 scale, 0 is no effect, 100 is complete control, read-out: Foxtail, Giant plant response rating
  pest or weed control at 500 g/ha: 40%
Corn (Zea mays); visual injury on 0 to 100 scale (0 no effect, 100 complete control), approx. 10 d, read-out: Corn plant response rating
  plant injury at 125 g/ha: 0%
Corn (Zea mays); 500 g ai/ha, 0 to 100 scale, 0 is no effect, 100 is complete control, read-out: Corn plant response rating
  plant injury at 500 g/ha: 20%
Rice (Oryra sativa); [14]
  pest or weed control at 250 g/ha: 0%
[10]; [14]
  pest or weed control at 250 g/ha: 0%
[11]; [14]
  pest or weed control at 250 g/ha: 0%
[12]; [14]
  pest or weed control at 250 g/ha: 0%

From patent publication US12077503B2, “Substituted cyclic amides and their use as herbicides” (FMC CORPORATION, priority 2015, dated 2024)
